# Results reported in patent US7371536B2, “Methods for transporting vitamin C” (priority 1999, dated 2008).
# Tests used:
# Assay type in all cases: cell-based
# [1] = target: T1, human SVCT1 (Homo sapiens, UniProt Q9UHI7); assay: Two-microelectrode voltage-clamp of Xenopus oocytes expressing human SVCT1
# T1 construct: expressed in transfected cells; host or cells: Xenopus laevis oocytes injected with cRNA (vector pTLN2)
# Procedure: (§1) Functional characterization in Xenopus oocytes—SVCT1 and SVCT2 cDNAs were subcloned into the pTLN2 vector (to improve functional expression in oocytes) and used for cRNA synthesis in vitro using the MEGAscript kit and T7 RNA polymerase (from Ambion). Oocytes were isolated from Xenopus laevis, treated with collagenase A and maintained at 18° C. in modified Barths' medium. Oocytes were injected with 15 ng SVCT1 or SVCT2 cRNA or water only. The radiotracer uptake and voltage-clamp experiments described below were conducted 2-5 days post-injection in standard medium of composition 100 mM NaCl, 2 mM KCl, 1 mM CaCl2, 1 mM MgCl2, and 10 mM HEPES (buffered to pH 7.5 with Tris base). For low-Na^+ or Na^+-free media, NaCl was replaced with choline chloride. For pH-dependence experiments, Na^+ media were buffered to between pH 5.5 and pH 8.0 using 0-5 mM MES, 0-5 mM HEPES and 0-5 mM Tris base. L-Ascorbic acid-containing solutions were always freshly prepared and used immediately. Radiotracer uptake was determined by incubating 8-12 oocytes for 30 min (within the time-course of linear uptake) in standard Na^+, low-Na^+ or Na^+-free media with 10-500 μM L-[1-^14C]ascorbic acid (final specific activity ≈0.3 GBq/mmol). Oocytes were solubilized with 10% SDS and carbon-14 content measured by liquid scintillation counting. A two-microelectrode voltage-clamp was used to measure currents associated with SVCT1 expressed in oocytes. Oocytes were superfused at 22° C. in standard Na^+ medium and clamped at −50 mV. Current was continuously monitored by sampling at 1 Hz. Test solutions were always washed out with substrate-free, Na^+-free medium at pH 7.5 for several minutes. Once again, saturation kinetics data were fit to a modified Hill equation in which I and Imax were replaced by uptake V and maximal velocity Vmax for analysis of radiotracer uptake data.
# [2] = target: T1, human SVCT1; assay: L-[14C]ascorbic acid radiotracer uptake in Xenopus oocytes expressing human SVCT1
# Procedure: as §1, with “Radiotracer uptake was determined by incubating 8-12 oocytes for 30 min (within the time-course of linear uptake) in standard Na^+, low-Na^+ or Na^+-free media with 10-500 μM L-[1-^14C]ascorbic acid (final specific activity ≈0.3 GBq/mmol).” left out
# [3] = target: T2, human SVCT2 (Homo sapiens, UniProt Q9UGH3, A167T); assay: L-[14C]ascorbic acid radiotracer uptake in Xenopus oocytes expressing human SVCT2
# T2 construct: expressed in transfected cells; host or cells: Xenopus laevis oocytes injected with cRNA (vector pTLN2)
# Procedure: as §1
# T2 sequence (Q9UGH3 whole entry A167T): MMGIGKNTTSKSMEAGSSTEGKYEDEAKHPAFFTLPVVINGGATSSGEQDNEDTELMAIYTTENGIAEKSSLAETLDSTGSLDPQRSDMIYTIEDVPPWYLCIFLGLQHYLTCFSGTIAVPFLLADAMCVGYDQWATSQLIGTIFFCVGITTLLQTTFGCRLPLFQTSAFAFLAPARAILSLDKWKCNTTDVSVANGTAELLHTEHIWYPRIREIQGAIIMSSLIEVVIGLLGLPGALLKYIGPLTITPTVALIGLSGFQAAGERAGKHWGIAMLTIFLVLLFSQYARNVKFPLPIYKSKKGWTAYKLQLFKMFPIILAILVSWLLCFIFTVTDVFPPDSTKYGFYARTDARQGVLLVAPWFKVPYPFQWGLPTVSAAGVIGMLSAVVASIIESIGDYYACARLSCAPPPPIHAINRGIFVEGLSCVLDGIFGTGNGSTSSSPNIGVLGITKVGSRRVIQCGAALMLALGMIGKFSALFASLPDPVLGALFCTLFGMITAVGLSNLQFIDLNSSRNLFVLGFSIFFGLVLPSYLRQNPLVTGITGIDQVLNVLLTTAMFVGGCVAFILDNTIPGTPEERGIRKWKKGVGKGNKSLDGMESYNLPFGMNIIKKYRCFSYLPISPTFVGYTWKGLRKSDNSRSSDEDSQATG
# T1 sequence (Q9UHI7 whole entry): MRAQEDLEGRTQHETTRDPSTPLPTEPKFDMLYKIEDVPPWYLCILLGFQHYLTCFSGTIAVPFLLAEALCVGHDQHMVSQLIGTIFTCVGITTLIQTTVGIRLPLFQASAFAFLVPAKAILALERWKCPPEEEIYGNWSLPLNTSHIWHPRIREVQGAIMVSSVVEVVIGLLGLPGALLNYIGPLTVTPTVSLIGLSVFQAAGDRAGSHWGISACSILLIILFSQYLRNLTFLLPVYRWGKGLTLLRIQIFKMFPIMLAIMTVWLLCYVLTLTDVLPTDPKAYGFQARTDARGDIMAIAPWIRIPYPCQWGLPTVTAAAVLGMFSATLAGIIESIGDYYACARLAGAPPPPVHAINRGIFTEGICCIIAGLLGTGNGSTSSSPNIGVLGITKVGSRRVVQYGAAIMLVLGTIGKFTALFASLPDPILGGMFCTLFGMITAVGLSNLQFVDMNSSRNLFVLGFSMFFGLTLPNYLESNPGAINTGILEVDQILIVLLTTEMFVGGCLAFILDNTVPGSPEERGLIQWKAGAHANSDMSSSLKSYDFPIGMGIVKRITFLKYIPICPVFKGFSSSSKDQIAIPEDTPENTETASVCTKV
compound,measurement,setting,value
O=C1O[C@H]([C@@H](O)CO)C(O)=C1O [L-ascorbic acid],reduction in current at pH 5.5 compared with pH 7.5,"[1]; 500 μM L-ascorbic acid, −50 mV",> 60%
same,L-ascorbic acid-evoked current,"[1]; 500 μM, −50 mV, mean±SEM from eight oocytes",−114±20 nA
same,L-ascorbic acid-evoked reversible inward currents,[1]; in the presence of extracellular Na^+,up to −150 nA
same,K0.5 based on evoked currents,"[1]; −50 mV, 100 mM Na^+, mean±propagated SEM from 5 oocytes",54 ± 10 µM
same,stimulation of uptake compared with water-injected control oocytes,[2]; 500 μM L-[14C]ascorbic acid,200 fold
same,uptake of L-[14C]ascorbic acid,[2]; 500 μM L-[14C]ascorbic acid,15.5±1.2 pmol/min per oocyte
same,Hill coefficient (nH),[2]; radiotracer uptake,~1
same,half-maximal concentration (K0.5) of uptake,"[2]; radiotracer uptake, Michaelis-Menten-type saturation",≈ 90 μM
same,stimulation of uptake compared with control oocytes,[3],15 fold
same,uptake of L-[14C]ascorbic acid,[3],1.2±0.1 pmol/min per oocyte
same,K0.5 of L-[14C]ascorbic acid transport,"[3]; radiotracer uptake, FIG. 10",65 µM
same,inhibition of the uptake of 100 μM L-[14C]ascorbic acid (in words),[3]; saturating concentration,inhibited
